Our source for the IC50 values is patent publication US10577363B2, “Substituted piperidine compounds” (EPIZYME, INC., priority 2014, dated 2020).

The target in test [1] is T1, SMYD3 (Homo sapiens (Human), UniProt Q9H7B4). The test is described as follows: SMYD3 cell assay (Trimethyl-MEKK2 In-Cell Western in 293T/17 cells). The format is cell-based. The following applies: Table 2A; read-out: SMYD3 Cell IC50. The essentials: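 In-Cell Western readout: methanol-fixed cells stained for trimethyl-MEKK2 and flag tag, ratio per well normalized to DMSO and background controls.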

The target in test [2] is T1, SMYD3. Briefly: SMYD3 biochemical assay (SPA, 3H-SAM methylation of MEKK2 protein substrate). The settings on record: Table 2A; read-out: SMYD3 Biochem IC50. The essentials:
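SPA methyltransferase format: tag-cleaved human SMYD3, insect-cell GST-MEKK2 protein substrate, 3H-SAM donor, 30 min RT enzyme–compound preincubation, 100 uM cold SAM quench.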

T1 sequence (Q9H7B4 whole entry): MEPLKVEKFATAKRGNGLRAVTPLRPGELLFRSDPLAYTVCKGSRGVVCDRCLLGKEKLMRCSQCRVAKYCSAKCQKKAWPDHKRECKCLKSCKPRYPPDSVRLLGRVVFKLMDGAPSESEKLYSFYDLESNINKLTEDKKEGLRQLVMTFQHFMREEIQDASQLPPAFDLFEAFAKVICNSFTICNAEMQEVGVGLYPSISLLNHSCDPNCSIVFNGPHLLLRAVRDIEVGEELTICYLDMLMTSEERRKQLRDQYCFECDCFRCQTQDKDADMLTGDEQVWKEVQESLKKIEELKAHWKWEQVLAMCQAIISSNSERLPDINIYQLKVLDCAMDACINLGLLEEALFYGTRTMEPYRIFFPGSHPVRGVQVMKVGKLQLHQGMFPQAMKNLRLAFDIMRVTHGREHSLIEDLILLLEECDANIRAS

Take `CN(C)CCNCCCS(=O)(=O)N1[C@@H]2CC[C@H]1C[C@@H](NC(=O)c1cc(C3CC3)on1)C2` [compound 590, 5-cyclopropyl-N-((1R,3r,5S)-8-((3-((2-(dimethylamino)ethyl)amino)propyl)sulfonyl)-8-azabicyclo[3.2.1]octan-3-yl)isoxazole-3-carboxamide]: the IC50 on SMYD3 [1] came to 175 nM; at SMYD3 [2], 10.9 nM.
In the same order, the values of `CNCCCS(=O)(=O)N1[C@@H]2CC[C@H]1C[C@@H](NC(=O)c1cc(C3CC3)on1)C2` [compound 591, 5-cyclopropyl-N-((1R,3r,5S)-8-((3-(methylamino)propyl)sulfonyl)-8-azabicyclo[3.2.1]octan-3-yl)isoxazole-3-carboxamide] are 150 nM and 11.1 nM.
In the same order, the values of `C[C@H]1C[C@@H](NC(=O)c2cc(C3CC3)on2)CCN1S(=O)(=O)N1C[C@@H]2C[C@H]1CN2C` [compound 592, 5-cyclopropyl-N-((2S,4S)-2-methyl-1-(((1S,4S)-5-methyl-2,5-diazabicyclo[2.2.1]heptan-2-yl)sulfonyl)piperidin-4-yl)isoxazole-3-carboxamide] are 106 nM and 11.6 nM.
The like results for `CN(C)CCCS(=O)(=O)N1[C@@H]2CC[C@H]1C[C@@H](NC(=O)c1cc(C3CC3)on1)C2` [compound 593, 5-cyclopropyl-N-((1R,3r,5S)-8-((3-(dimethylamino)propyl)sulfonyl)-8-azabicyclo[3.2.1]octan-3-yl)isoxazole-3-carboxamide] were, in that order, 147 nM and 11.8 nM.
For `O=C(N[C@H]1C[C@H]2CC[C@@H](C1)N2S(=O)(=O)NC1CC2(CNC2)C1)c1cc(C2CC2)on1` [compound 594, N-((1R,3r,5S)-8-(N-(2-azaspiro[3.3]heptan-6-yl)sulfamoyl)-8-azabicyclo[3.2.1]octan-3-yl)-5-cyclopropylisoxazole-3-carboxamide], the half-inhibitory concentration (IC50) was 669 nM on SMYD3 [1] and 12 nM at SMYD3 [2].
On to `C[C@@H]1CN(S(=O)(=O)N2CCNCC2)[C@H](C)C[C@@H]1NC(=O)c1cc(C2CC2)on1` [compound 595, 5-cyclopropyl-N-((2R,4S,5R)-2,5-dimethyl-1-(piperazin-1-ylsulfonyl)piperidin-4-yl)isoxazole-3-carboxamide], for which the IC50 at SMYD3 [1] came to 77.8 nM; on SMYD3 [2], 12.6 nM.
In the same order, the values of `NCCNCCS(=O)(=O)N1[C@@H]2CC[C@H]1C[C@@H](NC(=O)c1cc(C3CC3)on1)C2` [compound 596, N-((1R,3r,5S)-8-((2-((2-aminoethyl)amino)ethyl)sulfonyl)-8-azabicyclo[3.2.1]octan-3-yl)-5-cyclopropylisoxazole-3-carboxamide] are 379 nM and 12.8 nM.
In the same order, the values of `O=C(N[C@H]1C[C@H]2CC[C@@H](C1)N2S(=O)(=O)CCCN1CCCC1)c1cc(C2CC2)on1` [compound 597, 5-cyclopropyl-N-((1R,3r,5S)-8-((3-(pyrrolidin-1-yl)propyl)sulfonyl)-8-azabicyclo[3.2.1]octan-3-yl)isoxazole-3-carboxamide] are 217 nM and 12.9 nM.
Take `CN(CCN)CCS(=O)(=O)N1[C@@H]2CC[C@H]1C[C@@H](NC(=O)c1cc(C3CC3)on1)C2` [compound 598, N-((1R,3r,5S)-8-((2-((2-aminoethyl)(methyl)amino)ethyl)sulfonyl)-8-azabicyclo[3.2.1]octan-3-yl)-5-cyclopropylisoxazole-3-carboxamide]: the IC50 at SMYD3 [1] was found to be 431 nM; at SMYD3 [2], 13.1 nM.
In the case of `CN(C)CCNCCS(=O)(=O)N1[C@@H]2CC[C@H]1C[C@@H](NC(=O)c1cc(C3CC3)on1)C2` [compound 599, 5-cyclopropyl-N-((1R,3r,5S)-8-((2-((2-(dimethylamino)ethyl)amino)ethyl)sulfonyl)-8-azabicyclo[3.2.1]octan-3-yl)isoxazole-3-carboxamide], the half-maximal inhibitory concentration (IC50) at SMYD3 [1] is 213 nM; on SMYD3 [2], 13.5 nM.
For the molecule `CC1(C)CN(S(=O)(=O)N2[C@@H]3CC[C@H]2C[C@@H](NC(=O)c2cc(C4CC4)on2)C3)CCN1` [compound 600, 5-cyclopropyl-N-((1R,3r,5S)-8-((3,3-dimethylpiperazin-1-yl)sulfonyl)-8-azabicyclo[3.2.1]octan-3-yl)isoxazole-3-carboxamide], the values for the IC50 on SMYD3 [1] and on SMYD3 [2] were 118 nM and 13.5 nM, respectively.
On to `C[C@H]1CN(S(=O)(=O)CCCN)[C@@H](C)C[C@H]1NC(=O)c1cc(C2CC2)on1` [compound 601, N-((2S,4R,5S)-1-((3-aminopropyl)sulfonyl)-2,5-dimethylpiperidin-4-yl)-5-cyclopropylisoxazole-3-carboxamide], for which the 50% inhibitory concentration (IC50) was 333 nM at SMYD3 [1] and 14.3 nM on SMYD3 [2].
Consider `O=C(N[C@H]1C[C@H]2CC[C@@H](C1)N2S(=O)(=O)N1C2CCC1CNC2)c1cc(C2CC2)on1` [compound 602, N-((1R,3r,5S)-8-((3,8-diazabicyclo[3.2.1]octan-8-yl)sulfonyl)-8-azabicyclo[3.2.1]octan-3-yl)-5-cyclopropylisoxazole-3-carboxamide], for which the half-maximal inhibitory concentration (IC50) on SMYD3 [1] came out at 132 nM; on SMYD3 [2], 14.5 nM.
`CN(C)CCN(C)CCS(=O)(=O)N1[C@@H]2CC[C@H]1C[C@@H](NC(=O)c1cc(C3CC3)on1)C2` [compound 603, 5-cyclopropyl-N-((1R,3r,5S)-8-((2-((2-(dimethylamino)ethyl)(methyl)amino)ethyl)sulfonyl)-8-azabicyclo[3.2.1]octan-3-yl)isoxazole-3-carboxamide]: the concentration for half-maximal inhibition (IC50) on SMYD3 [1] turned out to be 239 nM; at SMYD3 [2], 14.7 nM.
As to `COCCNCCCS(=O)(=O)N1[C@@H]2CC[C@H]1C[C@@H](NC(=O)c1cc(C3CC3)on1)C2` [compound 604, 5-cyclopropyl-N-((1R,3r,5S)-8-((3-((2-methoxyethyl)amino)propyl)sulfonyl)-8-azabicyclo[3.2.1]octan-3-yl)isoxazole-3-carboxamide], the half-inhibitory concentration (IC50) on SMYD3 [1] worked out at 200 nM; on SMYD3 [2] it was 16.2 nM.
As to `CNCCNCCS(=O)(=O)N1[C@@H]2CC[C@H]1C[C@@H](NC(=O)c1cc(C3CC3)on1)C2` [compound 605, 5-cyclopropyl-N-((1R,3r,5S)-8-((2-((2-(methylamino)ethyl)amino)ethyl)sulfonyl)-8-azabicyclo[3.2.1]octan-3-yl)isoxazole-3-carboxamide], the half-maximal inhibitory concentration (IC50) is 302 nM on SMYD3 [1] and 17.5 nM on SMYD3 [2].
The like results for `CN1CCC(N(C)S(=O)(=O)N2[C@@H]3CC[C@H]2C[C@@H](NC(=O)c2cc(C4CC4)on2)C3)CC1` [compound 606, 5-cyclopropyl-N-((1R,3r,5S)-8-(N-methyl-N-(1-methylpiperidin-4-yl)sulfamoyl)-8-azabicyclo[3.2.1]octan-3-yl)isoxazole-3-carboxamide] were, in that order, 235 nM and 17.7 nM.
Consider `CC(C)N1CCC(CS(=O)(=O)N2CC[C@@H](NC(=O)c3cc(C4CC4)on3)C[C@H]2C)CC1` [compound 607, 5-cyclopropyl-N-((2R,4R)-1-(((1-isopropylpiperidin-4-yl)methyl)sulfonyl)-2-methylpiperidin-4-yl)isoxazole-3-carboxamide], for which the IC50 on SMYD3 [1] was 1170 nM; on SMYD3 [2] it was 17.8 nM.
As for `C[C@H]1CN(S(=O)(=O)CC2CCN(CCCO)CC2)CC[C@H]1NC(=O)c1cc(C2CC2)on1` [compound 608, 5-cyclopropyl-N-((3S,4R)-1-(((1-(3-hydroxypropyl)piperidin-4-yl)methyl)sulfonyl)-3-methylpiperidin-4-yl)isoxazole-3-carboxamide], the 50% inhibitory concentration (IC50) was 225 nM on SMYD3 [1] and 17.8 nM at SMYD3 [2].
The like results for `C[C@H]1C[C@@H](NC(=O)c2cc(C3CC3)on2)CCN1S(=O)(=O)CCCNCc1cccc(C(F)(F)F)c1` [compound 609, 5-cyclopropyl-N-((2S,4S)-2-methyl-1-((3-((3-(trifluoromethyl)benzyl)amino)propyl)sulfonyl)piperidin-4-yl)isoxazole-3-carboxamide] were, in that order, 451 nM and 18.8 nM.
In the same order, the values of `CN(C)CCN(C)CCCS(=O)(=O)N1[C@@H]2CC[C@H]1C[C@@H](NC(=O)c1cc(C3CC3)on1)C2` [compound 610, 5-cyclopropyl-N-((1R,3r,5S)-8-((3-((2-(dimethylamino)ethyl)(methyl)amino)propyl)sulfonyl)-8-azabicyclo[3.2.1]octan-3-yl)isoxazole-3-carboxamide] are 332 nM and 19.4 nM.
Take `CC(C)CN1CCC(CS(=O)(=O)N2CC[C@@H](NC(=O)c3cc(C4CC4)on3)C[C@H]2C)CC1` [compound 611, 5-cyclopropyl-N-((2R,4R)-1-(((1-isobutylpiperidin-4-yl)methyl)sulfonyl)-2-methylpiperidin-4-yl)isoxazole-3-carboxamide]: the half-inhibitory concentration (IC50) on SMYD3 [1] stood at 1030 nM; on SMYD3 [2], 20 nM.
With `C[C@H]1C[C@@H](NC(=O)c2cc(C3CC3)on2)CCN1S(=O)(=O)CCCNCC1CCCCC1` [compound 612, N-((2S,4S)-1-((3-((cyclohexylmethyl)amino)propyl)sulfonyl)-2-methylpiperidin-4-yl)-5-cyclopropylisoxazole-3-carboxamide], the IC50 at SMYD3 [1] stood at 217 nM; on SMYD3 [2] it was 20.7 nM.
For the molecule `C[C@H]1CN(S(=O)(=O)CC2CCN(CCCC(F)(F)F)CC2)CC[C@H]1NC(=O)c1cc(C2CC2)on1` [compound 613, 5-cyclopropyl-N-((3S,4R)-3-methyl-1-(((1-(4,4,4-trifluorobutyl)piperidin-4-yl)methyl)sulfonyl)piperidin-4-yl)isoxazole-3-carboxamide], the IC50 at SMYD3 [1] worked out at 212 nM; on SMYD3 [2], 20.9 nM.
Take `C[C@H]1CN(S(=O)(=O)N2CCC(NCc3ccccc3)CC2)CC[C@H]1NC(=O)c1cc(C2CC2)on1` [compound 614, N-((3S,4R)-1-((4-(benzylamino)piperidin-1-yl)sulfonyl)-3-methylpiperidin-4-yl)-5-cyclopropylisoxazole-3-carboxamide]: the half-maximal inhibitory concentration (IC50) at SMYD3 [1] came to 304 nM; on SMYD3 [2], 21.2 nM.
